This is an account of results in patent US8461329B2, “Isoquinoline derivative” (Taisho Pharmaceutical Co., Ltd., priority 2008, dated 2013).

The test has as its target T1, CRTH2 (KB8 cells) (Homo sapiens, UniProt Q9Y5Y4).
T1 construct: host or cells: KB8 cells (human CRTH2 expression cell)
T1 sequence (Q9Y5Y4 1-395): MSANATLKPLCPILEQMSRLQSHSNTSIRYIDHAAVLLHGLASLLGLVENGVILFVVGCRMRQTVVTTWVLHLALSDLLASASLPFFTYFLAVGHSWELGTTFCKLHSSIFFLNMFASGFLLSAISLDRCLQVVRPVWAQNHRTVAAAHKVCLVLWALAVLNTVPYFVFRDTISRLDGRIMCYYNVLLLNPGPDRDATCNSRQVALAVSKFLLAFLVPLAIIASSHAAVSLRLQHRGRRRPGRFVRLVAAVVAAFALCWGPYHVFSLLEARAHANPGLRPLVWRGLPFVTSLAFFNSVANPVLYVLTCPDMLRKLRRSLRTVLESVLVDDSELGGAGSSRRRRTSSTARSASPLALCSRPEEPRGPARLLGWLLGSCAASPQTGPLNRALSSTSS
The test is described as follows: CRTH2 antagonist test (PGD2-induced intracellular calcium ion concentration increase in KB8 cells). The test is classed as cell-based. The essentials: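 Fluo-4-AM-loaded KB8 cells in HBSS with 10 mM HEPES and 1 mM CaCl2 received compound plus PGD2 (final 100 nM); peak fluorescence followed over time. Inhibition was computed against no-compound and unlabelled-PGD2 controls, and IC50 obtained from a dose-response curve.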
(In general: Calcium flux is commonly read through the fluorescence of an indicator in the cells.)

Setting [1] is: PGD2 final concentration 100 nM, Fluo-4-AM fluorescence, read-out: antagonist activity (IC50 value, inhibition of calcium ion concentration increase).

Molecules are shown by their SMILES. Where a name gives a salt, the structure may show the parent alone. Read-outs that look alike come from different tables or passages of the source. Some results are limits rather than exact numbers.

Take `Cn1c(C(=O)Nc2ccc(C(=O)c3ncc(CC(=O)O)c4ccccc34)cc2)cc2ccccc21` [Example 123]: the IC50 under setting [1] was below 50 nM.
The same measure, in the same setting: next, `Cc1ccc(CCNC(=O)c2ccc(Cc3ncc(CC(=O)O)c4ccccc34)cc2)cc1C` [Example 168]: 50 to 500 nM.
Turning to `Cc1ccc(C(=O)Nc2ccc(C(=O)c3ncc(CC(=O)O)c4ccccc34)cc2)cc1Cl` [Example 99], the IC50 under setting [1] was below 50 nM.
Same read-out and setting: next, `CC(C)(C)c1ccc(CCNC(=O)c2ccc(Cc3ncc(CC(=O)O)c4ccccc34)cc2)cc1` [Example 193]: below 50 nM; `O=C(O)Cc1cnc(Cc2ccc(C(=O)NCCc3csc4ccccc34)cc2)c2ccccc12` [Example 230]: below 50 nM.
On the same count and under the same terms, next, `O=C(O)Cc1cnc(Cc2ccc(C(=O)Nc3ccc(Cl)cc3)cc2)c2ccccc12` [Example 159]: below 50 nM; `O=C(O)Cc1cnc(C(=O)c2ccc(NC(=O)c3ccc4nccnc4c3)cc2)c2ccccc12` [Example 117]: 500 to 1000 nM; `O=C(O)Cc1cnc(C(=O)c2ccc(NC(=O)c3cccc4cccnc34)cc2)c2ccccc12` [Example 104]: at least 1000 nM.
On the same count and under the same terms, the figure for `Cc1cc(C(=O)Nc2ccc(C(=O)c3ncc(CC(=O)O)c4ccccc34)cc2)ccc1Cl` [Example 107] is below 50 nM.
As to `O=C(O)Cc1cnc(C(=O)c2ccc(NC(=O)c3ncccn3)cc2)c2ccccc12` [Example 55], under setting [1], the IC50 lay within 500 to 1000 nM.
On the same count and under the same terms, next, `O=C(O)Cc1cnc(Cc2ccc(C(=O)NCCc3ccc4ccccc4n3)cc2)c2ccccc12` [Example 202]: 50 to 500 nM; `O=C(O)Cc1cnc(Cc2ccc(C(=O)NCCc3ccccc3Oc3ccccc3)cc2)c2ccccc12` [Example 243]: below 50 nM; `O=C(O)Cc1cnc(Cc2ccc(C(=O)NCCc3ccc(Cl)c(Cl)c3)cc2)c2ccccc12` [Example 160]: below 50 nM.
In the case of `Cc1ccccc1C(=O)Nc1ccc(C(=O)c2ncc(CC(=O)O)c3ccccc23)cc1` [Example 26], under setting [1], the IC50 fell in the range of 50 to 500 nM.
As for `O=C(O)Cc1cnc(C(=O)c2ccc(NC(=O)c3ccc4c(c3)CCCC4)cc2)c2ccccc12` [Example 54], under setting [1], the IC50 was below 50 nM.
On the same count and under the same terms, the figure for `O=C(O)Cc1cnc(Cc2ccc(C(=O)NCCc3cccc(Br)c3)cc2)c2ccccc12` [Example 172] is 50 to 500 nM; for `O=C(O)Cc1cnc(Cc2ccc(C(=O)NCCc3ccc(Cl)c(F)c3)cc2)c2ccccc12` [Example 221] it is below 50 nM; for `CC(C)Oc1ccc(C(=O)Nc2ccc(C(=O)c3ncc(CC(=O)O)c4ccccc34)cc2)cc1` [Example 115] it is below 50 nM.
On to `O=C(O)Cc1cnc(C(=O)c2ccc(NC(=O)c3cscn3)cc2)c2ccccc12` [Example 58], for which, under setting [1], the IC50 was at least 1000 nM.
Same read-out and setting: next, `O=C(O)Cc1cnc(Cc2ccc(C(=O)NCCN3CCOCC3)cc2)c2ccccc12` [Example 185]: at least 1000 nM; `Cc1ccc(C)c(C(=O)Nc2ccc(C(=O)c3ncc(CC(=O)O)c4ccccc34)cc2)c1` [Example 44]: 50 to 500 nM.
In the case of `O=C(O)Cc1cnc(Cc2ccc(C(=O)NCCOc3ccc(Cl)cc3)cc2)c2ccccc12` [Example 178], under setting [1], the IC50 lay in the range of 50 to 500 nM.
Regarding `Cc1ccc(CCNC(=O)c2ccc(Cc3ncc(CC(=O)O)c4ccccc34)cc2)cc1` [Example 165], the IC50 under setting [1] was below 50 nM.
As for `O=C(O)Cc1cnc(Cc2ccc(S(=O)(=O)NCCc3ccc(Cl)cc3)cc2)c2ccccc12` [Example 152, [1-(4-{[2-(4-chlorophenyl)ethyl]sulfamoyl}benzyl)isoquinolin-4-yl]acetic acid], the IC50 under setting [1] is 50 to 500 nM.
Same read-out and setting: the figure for `COc1ccc(CCNC(=O)c2ccc(Cc3ncc(CC(=O)O)c4ccccc34)cc2)cc1C` [Example 171] is 50 to 500 nM; for `O=C(O)Cc1cnc(Cc2ccc(C(=O)NCCc3ccc(F)c(F)c3)cc2)c2ccccc12` [Example 229] it is below 50 nM.
Same read-out and setting: next, `O=C(O)Cc1cnc(Cc2ccccc2OCc2ccc(Cl)cc2)c2ccccc12` [Example 252, (1-{2-[(4-chlorobenzyl)oxy]benzyl}isoquinolin-4-yl)acetic acid]: at least 1000 nM; `N#Cc1ccc(CCNC(=O)c2ccc(Cc3ncc(CC(=O)O)c4ccccc34)cc2)cc1` [Example 223]: 50 to 500 nM; `O=C(O)Cc1cnc(C(=O)c2ccc(NC(=O)C3=CCCCC3)cc2)c2ccccc12` [Example 90]: 50 to 500 nM.
Same read-out and setting: the figure for `O=C(O)Cc1cnc(C(=O)c2ccc(NC(=O)c3cccnc3)cc2)c2ccccc12` [Example 66] is at least 1000 nM; for `Cc1ccc(F)cc1CCNC(=O)c1ccc(Cc2ncc(CC(=O)O)c3ccccc23)cc1` [Example 213] it is 50 to 500 nM.
Turning to `O=C(O)Cc1cnc(Cc2ccc(C(=O)NCCc3cc(F)ccc3Cl)cc2)c2ccccc12` [Example 228], the IC50 under setting [1] is below 50 nM.
Turning to `O=C(O)Cc1cnc(C(=O)c2ccc(CNCc3ccc(Cl)cc3)cc2)c2ccccc12` [Example 147, {1-[(4-{[(4-chlorobenzyl)amino]methyl}phenyl)carbonyl]isoquinolin-4-yl}acetic acid hydrochloride], under setting [1], the IC50 was at least 1000 nM.
Still for that read-out and setting: next, `O=C(O)Cc1cnc(Cc2ccc(C(=O)NCCc3c(F)cccc3Cl)cc2)c2ccccc12` [Example 190]: 50 to 500 nM; `O=C(O)Cc1cnc(Cc2ccc(C(=O)NCCc3ccc(F)cc3Cl)cc2)c2ccccc12` [Example 233]: below 50 nM; `CN(C)c1ccc(CCNC(=O)c2ccc(Cc3ncc(CC(=O)O)c4ccccc34)cc2)cc1` [Example 206]: 50 to 500 nM.
Same read-out and setting: the figure for `CC(C)=CC(=O)Nc1ccc(C(=O)c2ncc(CC(=O)O)c3ccccc23)cc1` [Example 65] is 500 to 1000 nM.
The same measure, in the same setting: next, `O=C(O)Cc1cnc(C(=O)c2ccc(NC(=O)c3cc4c([nH]3)CCCC4)cc2)c2ccccc12` [Example 94]: below 50 nM; `O=C(O)Cc1cnc(C(=O)c2ccc(NC(=O)c3c(F)cccc3Cl)cc2)c2ccccc12` [Example 36]: at least 1000 nM; `Cc1ccc2sc(CCNC(=O)c3ccc(Cc4ncc(CC(=O)O)c5ccccc45)cc3)cc2c1` [Example 242]: below 50 nM.
`O=C(O)Cc1cnc(Cc2ccc(C(=O)NCCc3cc(Cl)ccc3Cl)cc2)c2ccccc12` [Example 224]: under setting [1], the IC50 was in the range of 50 to 500 nM.
Turning to `NC(=O)Cc1cnc(Cc2ccc(C(=O)NCCc3ccc(Cl)cc3)cc2)c2ccccc12` [Example 256, 4-{[4-(2-amino-2-oxoethyl)isoquinolin-1-yl]methyl}-N-[2-(4-chlorophenyl)ethyl]benzamide], the IC50 under setting [1] is at least 1000 nM.
The same measure, in the same setting: next, `O=C(O)Cc1cnc(Cc2ccc(C(=O)NCCc3ccc(F)cc3)cc2)c2ccccc12` [Example 200]: 50 to 500 nM.
Still for that read-out and setting: next, `O=C(O)Cc1cnc(Cc2ccc(C(=O)NCc3ccc(Cl)cc3)cc2)c2ccccc12` [Example 154]: 50 to 500 nM.
Still for that read-out and setting: next, `CCCOc1ccc(CCNC(=O)c2ccc(Cc3ncc(CC(=O)O)c4ccccc34)cc2)cc1` [Example 241]: below 50 nM.
With `COc1ccc2[nH]c(CCNC(=O)c3ccc(Cc4ncc(CC(=O)O)c5ccccc45)cc3)cc2c1` [Example 236], the IC50 under setting [1] was below 50 nM.
The same measure, in the same setting: next, `O=C(NCCc1ccc(Cl)cc1)c1ccc(Cc2ncc(Cc3nnn[nH]3)c3ccccc23)cc1` [Example 257, N-[2-(4-chlorophenyl)ethyl]-4-{[4-(1H-tetrazol-5-ylmethyl)isoquinolin-1-yl]methyl}benzamide]: at least 1000 nM; `O=C(O)Cc1cnc(Cc2ccc(C(=O)NCCC3CC3)cc2)c2ccccc12` [Example 239]: 50 to 500 nM.
Consider `O=C(O)Cc1cnc(Cc2ccc(C(=O)NCCC34CC5CC(CC(C5)C3)C4)cc2)c2ccccc12` [Example 240], for which the IC50 is 6.6 nM (PGD2 100 nM, Fluo-4 calcium fluorescence, read-out: CRTH2 antagonist activity IC50 value) and below 50 nM under setting [1].
With `O=C(O)Cc1cnc(Cc2ccc(C(=O)NCCc3cc4cc(F)ccc4[nH]3)cc2)c2ccccc12` [Example 235], the IC50 under setting [1] was below 50 nM.
Still for that read-out and setting: the figure for `O=C(O)Cc1cnc(C(=O)c2ccc(NC(=O)c3ccc(O)cc3)cc2)c2ccccc12` [Example 89] is below 50 nM.
Same read-out and setting: the figure for `O=C(O)Cc1cnc(Cc2ccc(C(=O)NCCc3cc(Cl)cc(Cl)c3)cc2)c2ccccc12` [Example 219] is 50 to 500 nM.
For the molecule `COc1ccc(/C=C/C(=O)Nc2ccc(C(=O)c3ncc(CC(=O)O)c4ccccc34)cc2)cc1` [Example 84], under setting [1], the IC50 was below 50 nM.
On the same count and under the same terms, the figure for `Cc1cc(CCNC(=O)c2ccc(Cc3ncc(CC(=O)O)c4ccccc34)cc2)ccc1Cl` [Example 245] is below 50 nM; for `CCCCC(=O)Nc1ccc(C(=O)c2ncc(CC(=O)O)c3ccccc23)cc1` [Example 80] it is 50 to 500 nM.
Regarding `O=C(O)Cc1cnc(Cc2ccc(OCCCc3ccc(Cl)cc3)cc2)c2ccccc12` [Example 150], the IC50 under setting [1] was in the range of 50 to 500 nM.
As to `O=C(O)Cc1cnc(Cc2ccc(C(=O)NCCc3ccc(OC(F)(F)F)cc3)cc2)c2ccccc12` [Example 203], the IC50 under setting [1] is below 50 nM.
The same measure, in the same setting: the figure for `O=C(O)Cc1cnc(Oc2ccc(C(=O)NCCc3ccc(Cl)cc3)cc2)c2ccccc12` [Example 261, [1-(4-{[2-(4-chlorophenyl)ethyl]carbamoyl}phenoxy)isoquinolin-4-yl]acetic acid] is at least 1000 nM; for `COc1cc(C(=O)Nc2ccc(C(=O)c3ncc(CC(=O)O)c4ccccc34)cc2)cc(OC)c1OC` [Example 63] it is 50 to 500 nM.
